# Assay results from BindingDB's records for doi:10.1016/0960-894X(95)00135-G (1995).
# Experiment: In vitro inhibitory activity against human neutrophil leukotriene B4 (LTB4) induced Chemotaxis
row,IC50 [µM],Compound
1,0.22,"CC(Oc1ccc2c(c1)OC[C@@H](Cc1ccccn1)[C@@H]2O)c1ccc2ccccc2n1 (stereo partly drawn) [(3R,4S)-3-Pyridin-2-ylmethyl-7-(1-quinolin-2-yl-ethoxy)-chroman-4-ol]"
2,3.4,"C[C@@H](Oc1ccc2c(c1)OC[C@@H](Cc1cccnc1)[C@@H]2O)c1ccc2ccccc2n1 [(3R,4S)-3-Pyridin-3-ylmethyl-7-((R)-1-quinolin-2-yl-ethoxy)-chroman-4-ol]"
3,6.1,"C[C@H](Oc1ccc2c(c1)OC[C@@H](Cc1cccnc1)[C@@H]2O)c1ccc2ccccc2n1 [(3R,4S)-3-Pyridin-3-ylmethyl-7-((S)-1-quinolin-2-yl-ethoxy)-chroman-4-ol]"
4,14,"CC(Oc1ccc2c(c1)OC[C@H](Cc1ccccn1)[C@@H]2O)c1ccc2ccccc2n1 (stereo partly drawn) [(3S,4S)-3-Pyridin-2-ylmethyl-7-(1-quinolin-2-yl-ethoxy)-chroman-4-ol]"
5,38,"CC(Oc1ccc2c(c1)OC[C@H](Cc1cccnc1)[C@@H]2O)c1ccc2ccccc2n1 (stereo partly drawn) [(3S,4S)-3-Pyridin-3-ylmethyl-7-(1-quinolin-2-yl-ethoxy)-chroman-4-ol]"
